Test results from paper PMC12951562, “SH2scan: Mapping SH2 Domain-Ligand Binding Selectivity for Inhibitors and Degraders” (Journal of Medicinal Chemistry, 2026).
Like-named read-outs stand apart in the source and are kept apart here.

Assays:
GRB14 = biological target: T1, GRB14 (Homo sapiens, UniProt Q14449); assay: biochemical; format: binding; details: for remaining activity at 10 µM: read-out: percent of DMSO vehicle control
T1 construct: the DNA-tagged SH2 domain concentrations used in this study were <0.1 nM; made in house; host or cells: HEK293 (transient transfection; unpurified extract)
T1 sequence (Q14449 439-535 limits assumed): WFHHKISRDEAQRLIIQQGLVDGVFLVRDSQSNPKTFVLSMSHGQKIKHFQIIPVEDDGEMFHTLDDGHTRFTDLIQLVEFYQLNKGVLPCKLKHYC

TNS2 = biological target: T2, TNS2 (Homo sapiens, UniProt Q63HR2); assay: biochemical; format: binding; details: read-out: percent of DMSO vehicle control
T2 construct: made in house; host or cells: HEK293 (transient transfection), unpurified extract
T2 sequence (Q63HR2 1-1409): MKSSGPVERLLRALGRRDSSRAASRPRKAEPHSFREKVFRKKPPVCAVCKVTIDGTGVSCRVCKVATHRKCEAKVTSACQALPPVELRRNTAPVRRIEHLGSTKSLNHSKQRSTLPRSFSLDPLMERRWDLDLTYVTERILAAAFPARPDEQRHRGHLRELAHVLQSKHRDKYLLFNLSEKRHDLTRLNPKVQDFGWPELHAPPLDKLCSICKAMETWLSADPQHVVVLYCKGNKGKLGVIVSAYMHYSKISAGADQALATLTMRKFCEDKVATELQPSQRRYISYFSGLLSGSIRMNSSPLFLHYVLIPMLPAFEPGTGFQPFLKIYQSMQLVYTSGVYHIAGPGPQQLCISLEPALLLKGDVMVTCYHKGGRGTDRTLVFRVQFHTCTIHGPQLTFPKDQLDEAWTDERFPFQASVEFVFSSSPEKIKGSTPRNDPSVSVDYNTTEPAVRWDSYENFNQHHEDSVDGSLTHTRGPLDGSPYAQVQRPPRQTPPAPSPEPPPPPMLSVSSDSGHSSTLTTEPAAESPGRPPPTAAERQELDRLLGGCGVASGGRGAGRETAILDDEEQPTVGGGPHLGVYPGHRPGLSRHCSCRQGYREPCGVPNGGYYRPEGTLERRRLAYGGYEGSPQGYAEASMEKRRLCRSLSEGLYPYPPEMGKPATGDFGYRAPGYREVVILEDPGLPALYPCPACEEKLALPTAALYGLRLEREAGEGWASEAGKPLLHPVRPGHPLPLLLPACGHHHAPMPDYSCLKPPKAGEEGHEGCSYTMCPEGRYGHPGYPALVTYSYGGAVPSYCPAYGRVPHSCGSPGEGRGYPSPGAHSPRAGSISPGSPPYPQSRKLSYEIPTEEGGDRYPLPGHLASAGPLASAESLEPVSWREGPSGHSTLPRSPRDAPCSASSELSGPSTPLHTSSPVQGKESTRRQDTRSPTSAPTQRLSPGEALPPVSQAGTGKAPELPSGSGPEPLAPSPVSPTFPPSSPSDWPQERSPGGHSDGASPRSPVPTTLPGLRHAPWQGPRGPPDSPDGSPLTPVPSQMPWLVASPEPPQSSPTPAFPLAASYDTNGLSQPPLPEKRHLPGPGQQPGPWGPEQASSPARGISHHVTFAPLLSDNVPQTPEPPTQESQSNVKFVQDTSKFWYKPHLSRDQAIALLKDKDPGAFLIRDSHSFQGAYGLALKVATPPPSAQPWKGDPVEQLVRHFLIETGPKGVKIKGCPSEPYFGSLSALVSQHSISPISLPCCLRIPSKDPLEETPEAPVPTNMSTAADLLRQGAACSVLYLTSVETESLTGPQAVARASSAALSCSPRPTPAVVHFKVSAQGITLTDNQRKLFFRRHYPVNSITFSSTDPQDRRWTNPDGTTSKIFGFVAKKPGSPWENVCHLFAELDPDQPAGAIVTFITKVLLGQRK

GRAP = biological target: T3, GRAP (Homo sapiens, UniProt Q13588); assay: biochemical; format: binding; details: read-out: percent of DMSO vehicle control; for remaining activity at 10 µM: primary screen
T3 construct: the DNA-tagged SH2 domain concentrations used in this study were <0.1 nM; made in house; host or cells: HEK293 (transient transfection; unpurified extract)

SOCS7 = biological target: T4, SOCS7 (Homo sapiens, UniProt O14512); assay: biochemical; format: binding; details: for remaining activity at 10 µM: read-out: percent of DMSO vehicle control
T4 construct: made in house; host or cells: HEK293 (transient transfection), unpurified extract
T4 sequence (O14512 1-581): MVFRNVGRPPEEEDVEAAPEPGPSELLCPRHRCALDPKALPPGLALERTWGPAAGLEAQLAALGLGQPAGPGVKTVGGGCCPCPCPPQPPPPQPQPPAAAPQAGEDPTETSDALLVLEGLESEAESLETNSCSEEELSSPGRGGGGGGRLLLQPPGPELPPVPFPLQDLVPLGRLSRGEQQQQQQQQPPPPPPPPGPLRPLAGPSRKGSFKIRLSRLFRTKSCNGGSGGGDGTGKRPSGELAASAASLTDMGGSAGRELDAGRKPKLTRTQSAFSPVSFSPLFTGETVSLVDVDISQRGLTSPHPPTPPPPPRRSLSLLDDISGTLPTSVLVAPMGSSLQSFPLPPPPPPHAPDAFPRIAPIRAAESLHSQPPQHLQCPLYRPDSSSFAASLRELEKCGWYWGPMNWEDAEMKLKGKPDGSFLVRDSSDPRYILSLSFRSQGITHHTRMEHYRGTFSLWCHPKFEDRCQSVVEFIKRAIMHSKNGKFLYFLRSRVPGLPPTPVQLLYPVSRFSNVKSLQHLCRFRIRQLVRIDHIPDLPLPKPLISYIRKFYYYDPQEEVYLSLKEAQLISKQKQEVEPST

[1] = biological target: T5, STAT3(S614R)-nonphosphorylated (Homo sapiens, UniProt P40763, S614R); assay: biochemical; format: binding; details: for percent of DMSO vehicle control at 10 µM / remaining activity at 10 µM: read-out: percent of DMSO vehicle control; for remaining activity at 10 µM: primary screen
T5 construct: made in house; host or cells: HEK293 (transient transfection), unpurified extract, dephosphorylated by endogenous phosphatases

SYK(SH2dom1.dom2.) = biological target: T6, SYK(SH2dom1.dom2.) (Homo sapiens, UniProt P43405); format: binding; details: primary screen, 10 μM
T6 construct: the SH2 domains for these targets are expressed in tandem constructs; made in house; host or cells: HEK293 (transient transfection), unpurified extract

[2] = biological target: T7, STAT3(D661Y)-nonphosphorylated (Homo sapiens, UniProt P40763, D661Y); assay: biochemical; format: binding; details: for percent of DMSO vehicle control at 10 µM / remaining activity at 10 µM: read-out: percent of DMSO vehicle control; for remaining activity at 10 µM: primary screen
T7 construct: made in house; host or cells: HEK293 (transient transfection), unpurified extract, dephosphorylated by endogenous phosphatases

ZAP70(SH2dom1.dom2.) = biological target: T8, ZAP70(SH2dom1.dom2.) (Homo sapiens, UniProt P43403); assay: biochemical; details: read-out: percent of DMSO vehicle control
T8 sequence (P43403 1-254 limits assumed): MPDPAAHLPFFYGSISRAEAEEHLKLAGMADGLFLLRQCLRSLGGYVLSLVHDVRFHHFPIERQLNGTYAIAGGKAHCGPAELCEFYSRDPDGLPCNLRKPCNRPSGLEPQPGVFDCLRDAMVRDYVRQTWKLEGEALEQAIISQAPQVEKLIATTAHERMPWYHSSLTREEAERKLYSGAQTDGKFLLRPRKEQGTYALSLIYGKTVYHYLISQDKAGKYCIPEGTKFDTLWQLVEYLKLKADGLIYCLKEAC

T7 sequence (P40763 whole entry D661Y): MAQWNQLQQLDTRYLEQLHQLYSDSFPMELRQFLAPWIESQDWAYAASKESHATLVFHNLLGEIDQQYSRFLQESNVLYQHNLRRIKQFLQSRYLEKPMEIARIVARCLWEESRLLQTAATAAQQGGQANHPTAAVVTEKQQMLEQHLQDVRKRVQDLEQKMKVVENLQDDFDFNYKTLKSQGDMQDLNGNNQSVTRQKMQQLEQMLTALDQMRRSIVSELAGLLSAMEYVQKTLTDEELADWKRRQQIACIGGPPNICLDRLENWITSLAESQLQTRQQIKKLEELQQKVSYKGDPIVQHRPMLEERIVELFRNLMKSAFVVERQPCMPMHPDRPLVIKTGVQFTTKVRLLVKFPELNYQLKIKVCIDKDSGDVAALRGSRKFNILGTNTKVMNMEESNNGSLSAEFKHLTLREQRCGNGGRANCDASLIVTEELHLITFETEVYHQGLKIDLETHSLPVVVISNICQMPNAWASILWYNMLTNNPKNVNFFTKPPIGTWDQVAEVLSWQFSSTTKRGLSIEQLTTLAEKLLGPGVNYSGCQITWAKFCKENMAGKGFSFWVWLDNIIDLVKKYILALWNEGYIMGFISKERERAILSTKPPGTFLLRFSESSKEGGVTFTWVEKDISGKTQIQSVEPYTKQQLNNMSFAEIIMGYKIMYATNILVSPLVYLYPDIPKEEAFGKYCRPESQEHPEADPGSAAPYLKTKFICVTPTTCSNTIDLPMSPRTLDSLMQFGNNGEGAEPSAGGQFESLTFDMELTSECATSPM
T3 sequence (Q13588 60-154 limits assumed): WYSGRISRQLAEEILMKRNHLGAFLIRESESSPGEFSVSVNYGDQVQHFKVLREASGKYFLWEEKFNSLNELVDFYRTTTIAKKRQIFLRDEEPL
T5 sequence (P40763 whole entry S614R): as the sequence (P40763 whole entry D661Y) above, with S614R, Y661D counted along it

| Structure (SMILES) | remaining activity at 10 µM (GRB14) [%] | remaining activity at 10 µM (TNS2) [%] | percent of DMSO vehicle control at 10 µM (GRAP) [%] | remaining activity at 10 µM (SOCS7) [%] | percent of DMSO vehicle control at 10 µM [1] [%] | percent of DMSO vehicle control (SYK(SH2dom1.dom2.)) [%] | percent of DMSO vehicle control at 10 µM [2] [%] | remaining activity at 10 µM (ZAP70(SH2dom1.dom2.)) [%] | remaining activity at 10 µM (GRB14; primary screen, 10 μM) [%] | remaining activity at 10 µM (TNS2; primary screen, 10 μM) [%] | remaining activity at 10 µM (GRAP) [%] | remaining activity at 10 µM (SOCS7; primary screen, 10 μM) [%] | Kd ([1]; dose-response, read-out: KD) [nM] | remaining activity at 10 µM [1] [%] | Kd ([2]; dose-response, read-out: KD) [nM] | remaining activity at 10 µM [2] [%] | further results |
| --- | --- | --- | --- | --- | --- | --- | --- | --- | --- | --- | --- | --- | --- | --- | --- | --- | --- |
| NC(=O)CC[C@H](NC(=O)[C@@H]1CC[C@@H]2CCN(C(=O)CCCCCC#Cc3cccc4c3CN(C3CCC(=O)NC3=O)C4=O)C[C@H](NC(=O)c3cc4cc(C(F)(F)P(=O)(O)O)ccc4[nH]3)C(=O)N21)C(=O)NC(c1ccccc1)c1ccccc1 (some centres unmarked) [SD-36] | 43.2 ± 2.9 | 65.4 ± 3.3 | 89.2 ± 4.6 | 271 | 1.6 | 104.6 | 0 | 95.6 ± 1.3 | – | – | – | – | – | – | – | – | Kd ([1]; dose-response): 9.7 ± 4.1 nM; Kd ([2]; dose-response): 24 ± 12 nM |
| CC(=O)N1CC[C@H]2CC[C@@H](C(=O)N[C@@H](CCC(N)=O)C(=O)NC(c3ccccc3)c3ccccc3)N2C(=O)[C@@H](NC(=O)c2cc3cc(C(F)(F)P(=O)(O)O)ccc3[nH]2)C1 [SI-109] | 110 | 126 | 141 | 124 | 0.1 | 121.8 | 0.6 ± 0.2 | 129 | – | – | – | – | – | – | – | – | Kd [1]: 5 ± 0.56 nM; Kd [2]: 21 ± 6.8 nM |
| C/C(=C\C(=O)N[C@H](C(=O)N1CCC[C@H]1C(=O)N(c1ccccc1)c1ccc(I)cc1)C(C)(C)C)c1ccc(OP(=O)(O)O)cc1 [STAT6-IN-1] | – | – | – | – | – | 61.2±11.0 | – | 51.4 | 24.5 ± 4 | 55.9 ± 0.4 | 52 ± 15.9 | 34.6 ± 0.1 | 88 ± 31 | 0 | 1000 ± 800 | 0 | Kd (GRB14; dose-response, read-out: KD): 3.5 ± 0.42 µM; KD (SOCS7; dose-response): No Hit |
| CC(C)(C)[C@H](NC(=O)/C=C/c1ccc(OP(=O)(O)O)cc1)C(=O)N1CCC[C@H]1C(=O)N(c1ccccc1)c1ccc(I)cc1 [STAT6-IN-3] | – | – | – | – | – | 65.2±43.9 | – | 60.7 ± 32.9 | 79.3 ± 7.7 | 86.8 ± 7.1 | 73.5 ± 23.6 | 50.9 ± 16.4 | 140 ± 71 | 0.1 ± 0.1 | 1900 ± 2300 | 4.4 ± 3.7 | – |
| O=C(COc1ccc2cc(C(=O)Nc3ccccc3)ccc2c1)NCc1ccc(OP(=O)(O)O)c(OP(=O)(O)O)c1 [Stafib-1] | – | – | – | – | – | 66.1±28.1 | – | 58 ± 19.5 | 55.1 ± 11.6 | 86 ± 8.8 | 76.2 ± 27 | 81 ± 17.8 | – | 87.4 ± 4.6 | – | 157 | – |
